≈ marks a conversion by molar mass, not a printed value. Values belong to the compound of their own block, whether it stands above or below them.
Columns and labels:
[1] = Displacement of [3H]-diazepam from benzodiazepine receptor in rat brain membranes after 30 mins; type: cell membranes, Membrane
[2] = system: Liver; assay: Antioxidant activity in rat liver microsomal membranes assessed as inhibition of Fe(2+)/ascorbate-induced lipid peroxidation; type: functional, microsomes, microsome
[3] = biological target: Intercellular adhesion molecule 1 (Homo sapiens, UniProt P05362); assay: Inhibition of ICAM1 (unknown origin)
Sequence of Intercellular adhesion molecule 1 (P05362 whole entry): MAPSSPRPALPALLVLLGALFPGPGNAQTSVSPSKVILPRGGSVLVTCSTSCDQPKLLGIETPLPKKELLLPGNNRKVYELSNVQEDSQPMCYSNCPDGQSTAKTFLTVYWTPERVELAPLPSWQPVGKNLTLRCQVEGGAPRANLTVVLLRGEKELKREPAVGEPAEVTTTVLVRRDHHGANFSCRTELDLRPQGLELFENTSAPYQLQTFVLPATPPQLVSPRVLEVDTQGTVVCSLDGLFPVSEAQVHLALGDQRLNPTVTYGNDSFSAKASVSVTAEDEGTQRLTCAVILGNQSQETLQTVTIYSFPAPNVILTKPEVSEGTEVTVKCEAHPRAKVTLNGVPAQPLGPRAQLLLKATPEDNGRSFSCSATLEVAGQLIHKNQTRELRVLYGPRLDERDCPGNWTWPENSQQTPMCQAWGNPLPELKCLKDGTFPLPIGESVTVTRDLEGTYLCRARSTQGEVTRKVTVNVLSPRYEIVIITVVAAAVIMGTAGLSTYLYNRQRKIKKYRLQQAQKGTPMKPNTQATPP

[4] = system: Mus musculus; assay: Anti-inflammatory activity in IL1-induced paw inflammation Balb/c mouse model assessed as inhibition of neutrophil migration at 10 mg/kg, po, pretreated for 30 mins followed by IL1 challenge measured after 2 hrs by spectrophotometric method; type: functional
[5] = system: Bacillus cereus; assay: Antibacterial activity against Bacillus cereus; type: functional, organism-based
[6] = system: Escherichia coli; assay: Antibacterial activity against Escherichia coli; type: functional
[7] = system: Mus musculus; assay: Anti-inflammatory activity in mouse IL-1-induced paw inflammation model assessed as inhibition of neutrophil infiltration at 10 mg/kg, po; type: functional; settings: Mus musculus, po
[8] = system: PBMC; assay: Cytotoxicity in human PBMCs assessed as reduction in cel viability at 50 ug/ml; type: cell-based
[9] = system: SNB-19; assay: Cytotoxicity against human SNB19 cells; type: functional, cell-based
[10] = system: T47D; assay: Cytotoxicity against human T47D cells; type: functional, cell-based
[11] = system: C32; assay: Cytotoxicity against human C32 cells; type: functional, cell-based
[12] = system: Bacillus subtilis; assay: Antibacterial activity against Bacillus subtilis; type: functional
[13] = system: Staphylococcus aureus; assay: Antibacterial activity against Staphylococcus aureus; type: functional
[14] = system: PBMC; assay: Inhibition of LPS-induced TNFalpha profduction in human PBMC at 5 ug/ml; type: functional
[15] = system: Rattus norvegicus; assay: Analgesic activity in Sprague-Dawley rat assessed as reduction in phenylbenzoquinone-induced number of writhes at 20 mg/kg, sc incubated for 60 mins; type: functional; design: scale not given: the % may be the effect or the level left
[16] = system: PBMC; assay: Inhibition of PHA-induced cell proliferation of human PBMC at 50 ug/ml incubated for 4 days by MTT method; type: functional; settings: 96 h
[17] = Inhibition of LTB4 formation in rat polymorphonuclear leukocytes preincubated for 2 mins followed by A-23187 addition after 4 mins; type: functional, cell-based
[18] = system: MDA-MB-231; assay: Cytotoxicity against human MDA-MB-231 cells; type: functional, cell-based
[19] = system: MCF7; assay: Cytotoxicity against human MCF7 cells; type: functional, cell-based

- IC50 [1]: 310 to 910 nM
Compound: N#Cc1c2c(c[nH]c1=O)Sc1ccc(N)cc1N2

- IC50 [2]: 2 to 3 µg/mL
Compound: c1ccc2c(c1)Nc1nc3ccccc3cc1S2

- IC50 [2]: 125000 nM
Compound: c1cc2c(cn1)Sc1ccncc1N2CCN1CCCC1

- IC50 [3]: 270 to 1400 nM
Compound: CS(=O)(=O)NC1CCN(Cc2ccc3c(c2)Nc2nccnc2S3)CC1
- inhibition in vivo at 10 mg/kg [4]: 83.4 to 89.7%

- IC50 [1]: 310 to 910 nM
Compound: N#Cc1c(O)ncc2c1Nc1cc(Cl)ccc1S2

- MIC [5]: 87.4 µg/mL (≈ 204 µM)
- MIC ([6]; Escherichia coli): 87.1 to 97.1 µg/mL (≈ 203 to 227 µM)
Compound: COc1ccc2c(n1)Sc1c3c(c4ccccc4c1=N2)=Nc1cc([N+](=O)[O-])ccc1O3

Compound: O=C(O)CC1C2CCC1CN(Cc1ccc3c(c1)Nc1nccnc1S3)C2 (stereo unspecified)
- inhibition in vivo at 10 mg/kg [7]: 83.2%

Compound: CCN(C)CC#CCN1c2cnccc2Sc2cccnc21
- Activity [8]: <= 22%
- IC50 [9]: 26.1 to 27.5 µg/mL (≈ 84.1 to 88.6 µM)
- IC50 [10]: 26.1 to 27.5 µg/mL (≈ 84.1 to 88.6 µM)
- IC50 [11]: 26.1 to 27.5 µg/mL (≈ 84.1 to 88.6 µM)

Compound: O=[N+]([O-])c1cnc2c(c1)Sc1cccc(F)c1N2
- inhibition zone (IZ) [12]: 8 - 12 mm
- inhibition zone (IZ) [6]: 7 - 12 mm
- inhibition zone (IZ) [13]: 8 - 15 mm

Compound: C#CCN1c2cnccc2Sc2cccnc21
- Activity [8]: <= 22%
- inhibition at 5 µg/mL [14]: > 85%

- IC50 [2]: 2 µg/mL
Compound: c1ccc2nc3c(cc2c1)Sc1ccc2ccccc2c1N3

Compound: O=C(O)C(=O)O.c1ccc2c(c1)Sc1cnccc1N2CCCN1CCCC1
- Activity [15]: 59 - 86%

Compound: c1cnc2c(c1)Sc1ccncc1N2CCN1CCOCC1
- Activity [8]: <= 22%
- inhibition at 50 µg/mL [16]: 60%

- IC50 [17]: 1 to 5 µg/mL (≈ 3.57 to 17.9 µM)
Compound: COc1ccc2c(c1Cl)Sc1nccnc1N2C

- IC50 [3]: 420 to 1000 nM
Compound: O=C(O)CC1CC2(CCN(Cc3ccc4c(c3)Nc3nccnc3S4)CC2)C1
- inhibition in vivo at 10 mg/kg [7]: 88.8%

Compound: C=CCN1c2cnccc2Sc2cccnc21
- Activity [8]: <= 22%
- inhibition at 5 µg/mL [14]: > 85%

Compound: C[n+]1cc2c(c3ccccc31)Nc1cc(OCCN3CCCC3)ccc1S2.[Cl-]
- IC50 [9]: ≤ 3 µg/mL
- IC50 [10]: ≤ 3 µg/mL
- IC50 [18]: ≤ 3 µg/mL
- IC50 [11]: ≤ 3 µg/mL

Compound: O=C(O)C(=O)O.c1ccc2c(c1)Sc1cnccc1N2CCCN1CCOCC1
- Activity [15]: 59 - 86%

- IC50 [2]: 16000 nM
Compound: c1ccc2nc3c(cc2c1)Sc1c(ccc2ncccc12)N3

Compound: CN1CCCCC1CCN1c2ccc(F)cc2Sc2cnc3ccccc3c21 (stereo unspecified)
- IC50 [19]: 5.92 to 6.96 µg/mL (≈ 15 to 17.7 µM)
- IC50 [18]: 5.92 to 6.96 µg/mL (≈ 15 to 17.7 µM)

- IC50 [2]: 107000 nM
Compound: O=[N+]([O-])c1ccc(N2c3ccncc3Sc3ccncc32)c([N+](=O)[O-])c1

Compound: c1cnc2c(c1)Sc1ccncc1N2
- Activity [8]: <= 22%
- inhibition at 50 µg/mL [16]: > 70%

Compound: CSc1ccc2c(c1)Sc1cnc3ccccc3c1N2Cc1ccccc1
- IC50 [19]: 8.71 µg/mL (≈ 22.5 µM)
- IC50 [18]: 7.59 µg/mL (≈ 19.6 µM)

Compound: O=[N+]([O-])c1cnc2c(c1)Sc1cc(Cl)ccc1N2
- inhibition zone (IZ) [12]: 8 - 12 mm
- inhibition zone (IZ) [6]: 12 mm
- inhibition zone (IZ) [13]: 8 - 15 mm

Compound: CCN(CC)CC#CCN1c2cnccc2Sc2cccnc21
- Activity [8]: <= 22%
- IC50 [9]: 26.1 to 27.5 µg/mL (≈ 80.4 to 84.8 µM)
- IC50 [10]: 26.1 to 27.5 µg/mL (≈ 80.4 to 84.8 µM)
- IC50 [11]: 26.1 to 27.5 µg/mL (≈ 80.4 to 84.8 µM)

- IC50 [1]: 310 to 910 nM
Compound: N#Cc1c(O)ncc2c1Nc1ccc(Cl)cc1S2

Compound: O=[N+]([O-])c1cnc2c(c1)Sc1cccc(Cl)c1N2
- inhibition zone (IZ) [12]: 12 mm
- inhibition zone (IZ) [6]: 7 - 12 mm
- inhibition zone (IZ) [13]: 8 - 15 mm

- IC50 [2]: 1000 nM
Compound: c1ccc2c3c(cnc2c1)Nc1cnc2ccccc2c1S3

Compound: O=[N+]([O-])c1cnc2c(c1)Sc1cccc(Br)c1N2
- inhibition zone (IZ) [12]: 8 - 12 mm
- inhibition zone (IZ) [6]: 7 - 12 mm
- inhibition zone (IZ) [13]: 8 - 15 mm

Compound: O=[N+]([O-])c1cnc2c(c1)Sc1cc(F)ccc1N2
- inhibition zone (IZ) [12]: 12 mm
- inhibition zone (IZ) [6]: 7 - 12 mm
- inhibition zone (IZ) [13]: 8 - 15 mm

- IC50 [1]: 310 to 910 nM
Compound: CN1c2ccccc2Sc2cnc(O)c(C#N)c21

Compound: c1ccc(CN2c3cnccc3Sc3cccnc32)cc1
- Activity [8]: <= 22%
- inhibition at 5 µg/mL [14]: > 85%
